Values joined by “and” are separate entries in the source; they are usually repeats but may differ in a detail not shown here. Identical values can stand only once. Like-named read-outs stand apart in the source and are kept apart here.

This note sets out measurements from patent publication US20260256790A1, “DEBIO-0123 IN COMBINATION WITH TEMOZOLOMIDE AND RADIOTHERAPY FOR USE IN TREATING GLIOMA” (Debiopharm International S.A., priority 2023, published 2026).

This data set can be described thus: Drug concentration in monkey brain and plasma after daily oral administration for 91 days. It is filed as in vivo, cynomolgus monkeys. The note with it: 10 mg/kg oral once a day for 91 days; for Kp at 24 h / concentration at 24 h: female, cynomolgus monkey, 10 mg/kg; for Kp at 24 h: brain (left forebrain) / plasma, po; for concentration at 24 h: oral. Here is the method: Compound of formula (I) was orally given to 3 female cynomolgus monkeys by gavage once a day for 91 days. The volume of administration was 5 mL/kg, and the vehicle was an aqueous solution of 0.5% (w/v) methylcellulose (cps 400) and 1% (w/v) Tween 80. The Compound of formula (I) dose was 10 mg/kg; this dose level was assessed in this study to be the […] no adverse effect level (NOAEL) based on general toxicology evaluation. The animals were necropsied 24 hours after the last dose after an overnight period without food. A sample from brain tissue (left forebrain) was collected from each animal, snap frozen in liquid nitrogen. and stored frozen at <−50° C. Blood samples were taken from the femoral vein into tubes containing K2EDTA, fully inverted approximately 10 times, and placed on crushed wet ice until centrifugation at 2300 g for 10 minutes at approximately 4° C. The resultant plasma was separated, transferred into polypropylene tubes, and frozen at <−50° C. Tissue and plasma samples were transported frozen on dry ice to the respective sites of analysis.
The monkey plasma samples were analyzed for their contents in Compound of formula (I) and N^32-desmethyl-Compound of formula (I) as follows. The plasma samples were fortified in human K2-EDTA plasma (1:9 monkey:human volume ratio) prior to extraction. All solution preparations and dilutions were conducted under sodium vapor light and in “low-binding” quality polypropylene tubes and deep-well plates. The analytes and internal standards (^13CD6-Compound of formula (I) and D7-N^32-desmethyl-Compound of formula (I)) were extracted by protein precipitation with 5M aqueous urea (40 μL for 50 μL plasma), and then analyzed by LC-MS/MS. Chromatographic separation was achieved on an Synergi Polar-RP, 80A, 4 μm 75×2.00 mm column (Phenomenex) with gradient elution using a mixture of 0.1% formic acid in water as eluent A and 0.1% formic acid in acetonitrile as eluent B (5% B from 0 to 0.50 min, 42% B at 4.5 min, 95% B from 4.60 min to 5.50 min, 5% B at 5.60 min, 100% B at 5.70 min, 5% B at 6.40 min, 100% B at 6.50 min, 5% B at 7.00 min; 800 μl/min, 70° C.). Detection was accomplished with a AB Sciex 6500+ mass spectrometer utilizing electrospray MS/MS in positive ion multiple reaction monitoring mode (MRM). The lower limits of quantification for Compound of formula (I) and N^32-desmethyl-Compound of formula (I) were 5.00 ng/mL and 2.50 ng/mL, respectively.
The monkey brain tissue samples were analyzed for their contents in Compound of formula (I) and N^32-desmethyl-Compound of formula (I) as follows. Tissue samples were homogenized in human plasma (1 mg tissue for 10 μL plasma) at +4° C. using a Precelly Evolution system. The analytes (Compound of formula (I) and N^32-desmethyl-Compound of formula (I)) were extracted by protein precipitation with methanol/acetonitrile (9:1, v:v) containing the internal standards (^13CD6-Compound of formula (I) and D7-N^32-desmethyl-Compound of formula (I)) and then analyzed by UHPLC-MS/MS. Chromatographic separation was achieved on a HSS T3 1.8 μm, 2.1×100 mme column (Waters) with gradient elution using a mixture of 0.1% formic acid in water as eluent A, and 0.1% formic acid in acetonitrile as eluent B (20% B from 0 to 0.50 min, 90% B from 1.80 min to 2.30 min, 20% B at 2.60 min; 0.6 mL/min, room temperature). Detection was accomplished with Xevo TQ-S mass spectrometer (Waters) utilizing electrospray MS/MS in positive ion multiple reaction monitoring mode (MRM). The lower limits of quantification for Compound of formula (I) and N^32-desmethyl-Compound of formula (I) were 55.00 ng/g tissue and 22.00 ng/g tissue, respectively.

In the case of `Cc1cc(Nc2ncc3c(n2)N(C)CN(c2c(Cl)cccc2Cl)C3=O)ccc1C1CCN(C)CC1` [Compound of formula (I)], the “Brain:plasma concentration ratio, at 24 h post last dose” value (individual animals) is 4.18 and 4.57. Where the note is “individual animals”, the “Plasma concentration at 24 h post last dose” value is 929 ng/mL and 632 ng/mL. The “Brain concentration at 24 h post last dose” value (left forebrain, individual animals) was 3885 ng/g tissue and 2886 ng/g tissue. In addition, the Kp at 24 h reads like this: (individual animals, read-out: Brain:plasma concentration ratio, at 24 h post last dose) 4.2; (read-out: Mean brain:plasma ratio (±SD), at 24 h post last dose (n = 3)) 4.32 ± 0.22. In addition, the concentration at 24 h by setting is: (brain (left forebrain), left forebrain, individual animals, read-out: Brain concentration at 24 h post last dose) 4790 ng/g; (plasma, individual animals, read-out: Plasma concentration at 24 h post last dose) 1140 ng/mL.
